Where “and” joins values, the source holds several entries; their conditions need not be identical. Equal values may be shown once.
Experiments:
[1] = Solubility when preparing the topical solution; format: physicochemical
Procedure: (§1) An aliquot of a representative presently disclosed compound was stored in an amber glass vial and stored at 25° C. […] 0.1 mL of this solution was diluted into 0.9 mL 190 proof alcohol to prepare a 0.5% solution.

HERG channel = HERG channel (Homo sapiens, UniProt Q12809); test: ADME-Tox: QT Prolongation, HERG (patch-clamp)
Chain of HERG channel (Q12809 whole entry): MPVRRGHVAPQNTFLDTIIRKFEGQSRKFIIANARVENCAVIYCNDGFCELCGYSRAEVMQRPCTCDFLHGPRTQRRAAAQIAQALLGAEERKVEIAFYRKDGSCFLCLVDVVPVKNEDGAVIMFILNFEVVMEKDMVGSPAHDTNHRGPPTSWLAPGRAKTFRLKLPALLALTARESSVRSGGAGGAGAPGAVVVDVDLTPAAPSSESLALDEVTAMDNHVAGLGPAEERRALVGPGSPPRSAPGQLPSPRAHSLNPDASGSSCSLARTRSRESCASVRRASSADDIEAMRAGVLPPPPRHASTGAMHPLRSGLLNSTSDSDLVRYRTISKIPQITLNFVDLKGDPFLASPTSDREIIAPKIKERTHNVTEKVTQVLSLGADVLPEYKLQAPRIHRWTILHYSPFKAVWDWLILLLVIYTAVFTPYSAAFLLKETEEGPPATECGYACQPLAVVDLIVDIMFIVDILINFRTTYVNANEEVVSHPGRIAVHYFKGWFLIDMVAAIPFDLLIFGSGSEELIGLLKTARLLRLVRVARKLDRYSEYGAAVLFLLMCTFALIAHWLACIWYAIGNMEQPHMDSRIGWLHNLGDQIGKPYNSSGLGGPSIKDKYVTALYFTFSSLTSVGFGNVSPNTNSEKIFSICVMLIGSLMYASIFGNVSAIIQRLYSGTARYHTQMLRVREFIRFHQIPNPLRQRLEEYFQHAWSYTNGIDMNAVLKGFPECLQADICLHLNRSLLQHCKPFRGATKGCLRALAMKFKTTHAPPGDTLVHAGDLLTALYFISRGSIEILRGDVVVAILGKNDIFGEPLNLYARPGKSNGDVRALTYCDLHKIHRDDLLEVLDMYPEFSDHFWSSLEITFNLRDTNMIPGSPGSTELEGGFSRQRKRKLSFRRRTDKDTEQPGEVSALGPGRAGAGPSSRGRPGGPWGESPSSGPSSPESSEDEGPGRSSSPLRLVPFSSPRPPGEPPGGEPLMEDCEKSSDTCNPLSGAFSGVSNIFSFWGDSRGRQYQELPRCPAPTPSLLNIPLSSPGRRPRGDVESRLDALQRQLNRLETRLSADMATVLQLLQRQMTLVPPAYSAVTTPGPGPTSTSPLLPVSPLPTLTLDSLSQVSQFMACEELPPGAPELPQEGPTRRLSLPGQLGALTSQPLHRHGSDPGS

hERG = hERG (Homo sapiens, UniProt Q12809); test: ADME-Tox: QT Prolongation, HERG (patch-clamp); conditions: human, HEK-293 cells stably expressing HERG
TNF-α production by PMBC = test: Inhibition of TNF-α Production By Peripheral Blood Monocyte Cells (PMBC), LPS stimulated; format: cell-based; conditions: 1 ug/mL LPS, 24 hours
Procedure: PMBC in RPMI 1640 Cell Culture Medium (containing 1% Penicillin and 1% Streptomycin) are aliquoted into 96-well plates at 5×10^5 cells/well and pre-incubated with test compounds for 30 minutes at 37° C. After incubation, 1 ug/mL LPS is added to each well to stimulate TNF-α production and the plate is incubated for 24 hours at 37° C. After incubation, the supernatant is removed and the TNF-α secreted is quantified using EIA detection kits commercially available from R&D Systems (USA). The results from this assay are expressed as percent inhibition of control activity, with the control being stimulated wells with no test compound. Dexamethasone is used as a standard reference compound in the assay and is tested with each experiment. All test compounds are diluted from 10 mM stock solutions in 100% DMSO.

phosphodiesterase [2] = biological target: T1, phosphodiesterase (Homo sapiens, UniProt O76074); test: In vitro phosphodiesterase enzyme assays of Example 39 (IC50 determination); format: biochemical
T1 construct: IC50; other: Phosphodiesterase 5 (h); nH; other: Hill coefficient, Phosphodiesterase 5 (h)
Procedure: (§2) The in vitro pharmacology of 5-(2-(4-Methoxyphenyl)-1H-benzo[d]imidazol-1-yl)pentylboronic acid was determined with several enzymes as described in Table 19 using the experimental conditions of Table 18.
(§3) Results. The corresponding inhibition curves were also determined (data not shown). Each is within accepted limits of the historic average ±0.5 log units. Table 21 contains the mean experimental values for the […] as performed as described above.

phosphodiesterase [3] = biological target: T2, phosphodiesterase; test: as above; format: biochemical; conditions: Phosphodiesterase 4 (h)
T2 construct: IC50; other: Phosphodiesterase 4 (h); nH; other: Hill coefficient, Phosphodiesterase 4 (h)
Procedure: as §2, §3

phosphodiesterase [4] = biological target: T3, phosphodiesterase (Homo sapiens, UniProt O00408); test: as above; format: biochemical
T3 construct: IC50; other: Phosphodiesterase 2 (h); nH; other: Hill coefficient, Phosphodiesterase 2 (h)
T3 sequence (O00408 whole entry): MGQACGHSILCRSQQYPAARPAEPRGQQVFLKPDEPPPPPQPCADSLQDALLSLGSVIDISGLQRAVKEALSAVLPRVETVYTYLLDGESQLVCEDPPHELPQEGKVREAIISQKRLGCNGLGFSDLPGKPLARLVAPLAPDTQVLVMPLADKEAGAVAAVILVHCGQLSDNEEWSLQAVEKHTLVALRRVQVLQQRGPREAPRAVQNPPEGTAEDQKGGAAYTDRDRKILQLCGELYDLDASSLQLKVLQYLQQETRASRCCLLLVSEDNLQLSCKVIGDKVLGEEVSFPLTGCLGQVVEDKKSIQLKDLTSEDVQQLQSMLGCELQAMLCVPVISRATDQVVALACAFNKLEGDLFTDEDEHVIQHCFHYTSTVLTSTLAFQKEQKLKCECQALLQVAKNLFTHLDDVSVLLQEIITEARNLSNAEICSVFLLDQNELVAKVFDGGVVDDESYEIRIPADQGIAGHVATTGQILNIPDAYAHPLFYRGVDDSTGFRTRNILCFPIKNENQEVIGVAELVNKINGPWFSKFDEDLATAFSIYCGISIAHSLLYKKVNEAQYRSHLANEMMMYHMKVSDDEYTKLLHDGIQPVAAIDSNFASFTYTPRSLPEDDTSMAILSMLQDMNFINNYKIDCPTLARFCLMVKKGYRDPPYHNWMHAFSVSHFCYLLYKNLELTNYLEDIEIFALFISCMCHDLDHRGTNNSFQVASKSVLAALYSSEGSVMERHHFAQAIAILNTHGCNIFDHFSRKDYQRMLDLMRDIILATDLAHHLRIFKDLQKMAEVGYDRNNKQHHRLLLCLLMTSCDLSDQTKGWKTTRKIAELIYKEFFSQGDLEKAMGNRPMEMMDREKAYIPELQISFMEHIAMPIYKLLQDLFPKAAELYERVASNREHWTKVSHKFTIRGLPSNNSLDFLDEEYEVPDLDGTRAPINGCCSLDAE
Procedure: as §2, §3

phosphodiesterase [5] = biological target: T4, phosphodiesterase (Bos taurus, UniProt P11541+P23439); test: as above; format: biochemical; conditions: Hill coefficient, Phosphodiesterase 6
T4 construct: IC50; other: Phosphodiesterase 6 (bovine retina); nH; other: Hill coefficient, Phosphodiesterase 6
T4 sequence (P11541 2-856): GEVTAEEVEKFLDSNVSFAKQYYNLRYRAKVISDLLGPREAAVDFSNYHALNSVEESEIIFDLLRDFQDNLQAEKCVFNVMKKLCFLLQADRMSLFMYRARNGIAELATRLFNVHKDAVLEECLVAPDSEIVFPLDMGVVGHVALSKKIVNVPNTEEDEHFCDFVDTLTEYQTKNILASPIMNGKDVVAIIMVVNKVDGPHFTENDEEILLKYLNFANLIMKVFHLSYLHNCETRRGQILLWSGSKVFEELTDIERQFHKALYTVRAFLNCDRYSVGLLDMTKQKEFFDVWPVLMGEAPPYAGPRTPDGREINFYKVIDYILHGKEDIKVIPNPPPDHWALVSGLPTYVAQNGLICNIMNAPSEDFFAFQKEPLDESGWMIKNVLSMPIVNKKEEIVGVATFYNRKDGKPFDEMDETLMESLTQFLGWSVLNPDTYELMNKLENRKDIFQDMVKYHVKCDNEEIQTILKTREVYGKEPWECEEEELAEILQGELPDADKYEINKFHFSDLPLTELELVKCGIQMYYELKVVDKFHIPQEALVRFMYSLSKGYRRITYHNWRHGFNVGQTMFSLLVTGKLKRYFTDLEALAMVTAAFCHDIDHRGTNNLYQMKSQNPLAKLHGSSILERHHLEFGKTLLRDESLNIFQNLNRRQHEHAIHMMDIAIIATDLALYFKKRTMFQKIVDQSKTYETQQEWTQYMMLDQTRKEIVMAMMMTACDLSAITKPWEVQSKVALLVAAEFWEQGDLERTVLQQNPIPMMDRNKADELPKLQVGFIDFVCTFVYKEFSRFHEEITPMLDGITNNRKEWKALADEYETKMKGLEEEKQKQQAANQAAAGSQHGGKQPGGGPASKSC
T4 sequence (P23439 2-850): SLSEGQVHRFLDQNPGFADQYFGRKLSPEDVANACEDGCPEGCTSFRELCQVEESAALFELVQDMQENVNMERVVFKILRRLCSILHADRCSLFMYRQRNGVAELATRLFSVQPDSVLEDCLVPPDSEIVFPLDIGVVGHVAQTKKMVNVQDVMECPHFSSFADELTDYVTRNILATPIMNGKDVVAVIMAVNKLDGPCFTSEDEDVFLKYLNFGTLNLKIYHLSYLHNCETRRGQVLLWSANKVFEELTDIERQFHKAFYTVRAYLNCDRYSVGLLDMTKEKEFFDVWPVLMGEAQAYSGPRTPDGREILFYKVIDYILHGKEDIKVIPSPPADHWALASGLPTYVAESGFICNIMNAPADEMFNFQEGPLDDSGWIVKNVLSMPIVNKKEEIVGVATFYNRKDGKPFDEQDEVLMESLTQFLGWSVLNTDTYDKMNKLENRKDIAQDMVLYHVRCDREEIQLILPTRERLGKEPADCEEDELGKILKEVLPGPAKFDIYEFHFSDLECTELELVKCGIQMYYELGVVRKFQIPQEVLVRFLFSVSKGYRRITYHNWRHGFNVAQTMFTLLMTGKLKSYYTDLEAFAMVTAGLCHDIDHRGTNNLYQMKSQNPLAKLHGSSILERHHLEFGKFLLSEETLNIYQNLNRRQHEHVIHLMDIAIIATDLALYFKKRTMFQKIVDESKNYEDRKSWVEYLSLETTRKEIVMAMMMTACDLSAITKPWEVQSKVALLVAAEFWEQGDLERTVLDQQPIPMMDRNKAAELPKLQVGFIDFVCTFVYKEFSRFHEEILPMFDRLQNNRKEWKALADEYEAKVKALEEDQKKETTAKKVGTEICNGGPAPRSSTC
T4 sequence (P04972 whole entry partner): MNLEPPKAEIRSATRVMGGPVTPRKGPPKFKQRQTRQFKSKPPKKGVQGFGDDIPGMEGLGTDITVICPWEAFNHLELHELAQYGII
Procedure: as §2, §3

[6] = system: arachidonic acid-induced ear edema; test: Arachidonic acid-induced mouse ear edema model; format: in vivo; conditions: for inhibition of the irritant-induced ear edema: thirty minutes prior to arachidonic acid challenge; for Change in Ear Weight (mg) Average / % Inhibition / Ear Weight (mg) Left (−AA) / Ear Weight (mg) Right (+AA): topical; for % Inhibition: change in ear weight vs vehicle; for Ear Weight (mg) Left (−AA) / Ear Weight (mg) Right (+AA): individual mice
Procedure: This example was carried out in male BALB/c mice. 42 BALB/c mice (Harlan Sprague-Dawley, Inc., male, PO # 452036, R #2449, 5-6 weeks) were received, individually examined, and housed in four cages of ten mice each and one cage containing two mice. Each animal was in apparent good health: no clinical signs of disease or distress. The animals were placed in quarantine with daily inspections.
as §1
30 mg indomethacin (Sigma Cat. I-7378, lot 60K0745) was dissolved in 5 ml 0.1 M NaHCO3 to prepare a 6 mg/mL solution.
48.9 μL arachidonic acid (Sigma Cat. A-9673. lot 057K1620) was dissolved in 450 μL 190 proof alcohol to prepare a 100 mg/mL solution.
The mice were numbered and weighed. The mice in Groups 1, 3, 4 were topically treated on both sides of both ears with either 25 μL 190 proof alcohol, 5% 5-(2-(4-Methoxyphenyl)-1H-benzo[d]imidazol-1-yl)pentylboronic acid, or 0.5% 5-(2-(4-Methoxyphenyl)-1H-benzo[d]imidazol-1-yl)pentylboronic acid. The mice in Group 2 were injected intraperitoneally with 5 mL/kg indomethacin (30 mg/kg). Thirty minutes after 190 proof alcohol, indomethacin, or 5-(2-(4-Methoxyphenyl)-1H-benzo[d]imidazol-1-yl)pentylboronic acid application/administration, 5 μL of the arachidonic acid solution was applied to the dorsal and ventral sides of the right ear. The contralateral ear was treated with 190 proof alcohol. One hour after alcohol/arachidonic acid application, the mice were euthanized, the ears removed and the ear weights recorded.
Significance (p-value) was calculated using Student's T-test. The effect of prophylactic topical treatment with a representative presently disclosed compound on arachidonic acid-induced murine ear edema is shown in FIG. 16.

Cytochrome P450 (CYP) [7] = biological target: Cytochrome P450 (CYP) (Homo sapiens, UniProt P05177)
Chain of Cytochrome P450 (CYP) (Homo sapiens, UniProt P05177) (P05177 whole entry): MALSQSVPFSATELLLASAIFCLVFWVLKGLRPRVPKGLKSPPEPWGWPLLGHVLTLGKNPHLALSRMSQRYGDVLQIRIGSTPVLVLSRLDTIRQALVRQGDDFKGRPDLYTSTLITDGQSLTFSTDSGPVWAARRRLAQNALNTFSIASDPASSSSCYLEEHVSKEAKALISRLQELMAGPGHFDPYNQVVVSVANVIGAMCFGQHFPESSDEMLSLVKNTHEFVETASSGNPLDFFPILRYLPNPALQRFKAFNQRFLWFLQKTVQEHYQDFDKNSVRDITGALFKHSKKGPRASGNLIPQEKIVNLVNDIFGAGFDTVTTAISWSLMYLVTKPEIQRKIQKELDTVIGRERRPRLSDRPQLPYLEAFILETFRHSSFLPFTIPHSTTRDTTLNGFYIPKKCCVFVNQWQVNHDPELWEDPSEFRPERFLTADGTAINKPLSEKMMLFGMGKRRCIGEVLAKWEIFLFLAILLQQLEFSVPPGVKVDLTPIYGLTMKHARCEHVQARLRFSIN

Cytochrome P450 (CYP) [8] = biological target: Cytochrome P450 (CYP) (Homo sapiens, UniProt P10635); test: ADME-Tox: In vitro Metabolism (Cytochrome P450, fluorogenic substrates BFC, CEC, MFC); conditions: Hill coefficient, CYP2D6 Inhibition (7-MFC substrate)
Cytochrome P450 (CYP) [9] = biological target: Cytochrome P450 (CYP) (Homo sapiens, UniProt P11712); test: as above; conditions: Hill coefficient, CYP2C9 Inhibition (7-MFC substrate)
Chain of Cytochrome P450 (CYP) (Homo sapiens, UniProt P11712) (P11712 whole entry): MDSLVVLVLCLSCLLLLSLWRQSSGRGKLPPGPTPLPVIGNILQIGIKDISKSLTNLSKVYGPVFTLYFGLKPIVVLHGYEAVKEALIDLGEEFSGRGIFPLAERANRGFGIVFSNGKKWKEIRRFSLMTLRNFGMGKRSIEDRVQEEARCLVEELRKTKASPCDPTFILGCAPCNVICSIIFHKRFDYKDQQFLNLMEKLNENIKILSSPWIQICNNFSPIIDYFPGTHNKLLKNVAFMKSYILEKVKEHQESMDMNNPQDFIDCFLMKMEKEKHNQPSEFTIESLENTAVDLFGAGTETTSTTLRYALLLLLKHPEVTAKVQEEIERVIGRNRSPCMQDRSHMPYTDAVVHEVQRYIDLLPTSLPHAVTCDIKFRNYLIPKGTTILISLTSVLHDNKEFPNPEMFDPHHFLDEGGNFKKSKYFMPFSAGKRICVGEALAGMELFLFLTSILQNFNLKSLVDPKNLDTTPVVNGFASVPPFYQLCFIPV

TNBS colitis = conditions: single intravenous dose pre-treatment; 8 days after TNBS challenge; cited from earlier work
[10] = system: chronic colitis provoked by trinitrobenzene sulphonic acid (TNBS); test: Rat model of chronic colitis provoked by TNBS over 14 days, treatment from Day 1; format: in vivo; conditions: 3 mg/kg i.v. on Day 1 and Day 7
Excerpt: In the chronic model of colitis, assessment of the colonic inflammation is made 14 days or longer, after the intracolonic challenge with TNBS (Boughton-Smith et al, 1988a, 1988b; Wallace et al, 1989; Rachmilewitz et al, 1989; Wallace and Keenan, 1990; Ameho et al, 1987; Sans et al, 1999; Sun et al, 2001; Maric et al, 2003; Moreels et al, 2004; Gonzalez et al, 2004). This model allows treatment with experimental agents to commence following the establishment of the colonic injury, typically 24 hours after the TNBS challenge (Galvez et al, 2000, Villegas, 2003, Gonzalez et al, 2004). The model should therefore identify the ability of the experimental compounds to accelerate the diminution of the inflammatory response and to promote healing of the colonic lesions. This model thus has relevance additional to the acute model, as the clinical correlate is the therapeutic intervention in patients with existing IBD not in remission or with flare-up, to reduce the crisis. This contrasts with the acute TNBS model where the compounds are administered one or two days prior to challenge, the clinical correlate being the use of prophylactic therapy to prevent flare-up and maintain remission in IBD patients.
In this current study, the low intracolonic challenge concentration of TNBS used in the acute studies was also used for the chronic study over a 14 day period. This concentration and timing was based on the findings from pilot studies where a range of concentrations of TNBS and treatment conditions were evaluated over a 14 day period. […].
The methods and protocol used were substantially similar to those in Example 39-40, with some differences described below.
TNBS Challenge. Male Wistar rats (average body weight, 210 g) were randomised into groups before commencement of the study. In all groups, including the non-challenged and non-treated absolute control group, food was withdrawn for 12 h before TNBS administration (i.e. overnight on Day −1), but the rats were allowed free access to drinking water.
On the morning of the day of challenge (Day 0, between 9.00 and 1 1.00 a.m.), the rats were transiently anaesthetised with ether and the TNBS solution (10 mg in 0.25 ml of 50% ethanol) was instilled approximately 6-8 cm into the colon using a soft plastic catheter inserted in the rat rectum. The rats were allowed to recover with free access to food and drinking water. At the end of the experiment, on the morning of Day 14, between 9.00 and 11.00), the colon was dissected, and the distal 8 cm photographed and immediately processed or stored appropriately for subsequent analyses.
The following primary parameters were measured in the study: macroscopic scoring of distal 8 cm of colon; myeloperoxidase levels in segments of distal 8 cm of colon; TNF-α levels in segments of distal 8 cm of colon.
In addition, the weight of the standard colonic segment was assessed as an indirect and non-specific marker of oedema. The body weight of the animals was also determined each evening of the study, starting on Day-1, and also on the morning of Day 14. The data is shown graphically as the % change from the weight on Day-1, prior to challenge.
Treatments. The TNBS challenged groups for study were: (a) Vehicle control 0.5% carboxy methyl cellulose (CMC) p.o., twice daily from Day; (b) CCI-7506 25 mg/kg, p.o., twice daily from Day 1 (50 mg/kg/day total); (c) CCI-7506 50 mg/kg, p.o., twice daily from Day 1 (100 mg/kg/day total); (d) CCI-7507 12.5 mg/kg, p.o., twice daily from Day 1 (25 mg/kg/day total); (e) CCI-7507 25 mg/kg, p.o., twice daily from Day 1(50 mg/kg/day total); […]; (g) Infliximab 3 mg/kg, single slow i.v. injection, on Day 1 and Day7.
The experimental compounds that were administered orally were given twice a day from Day 1, i.e. 24 h following TNBS administration, for the remainder of the 14 day experimental period. Infliximab was administered by slow i.v. injection of Day 1 and on Day 7. […]

Which solubility in acetone [1] does the source give for `COc1ccc(-c2nc3ccccc3n2CCCCCB(O)O)cc1` [Example 7, 5-(2-(4-Methoxyphenyl)-1H-benzo[d]imidazol-1-yl)pentylboronic acid] here?
Its solubility in acetone is “not soluble in acetone”.

What about the “Potency Ranking” value (HERG channel; HERG-channel blocker ranking, from 1 μM test (Table 21)) of the same compound?
Its value is “Moderate/High”.

And the “HERG-channel blocker potency class” value (HERG channel; general potency ranking system (Roche et al.))?
The value was “moderate/high”.

What about the inhibition at 1 µM (hERG) of the same compound?
Its inhibition at 1 µM is 49.7%.

And the IC50 (TNF-α production by PMBC)?
Its IC50 is 200 nM.

What about the nH (phosphodiesterase [2]; Hill coefficient, Phosphodiesterase 5(h)) of the same compound?
The nH was 0.7.

What about the IC50 (phosphodiesterase [2]; Phosphodiesterase 5 (h)) of the same compound?
Its IC50 is 960 nM.

What about the IC50 (phosphodiesterase [3]) of the same compound?
The IC50 was 420 nM.

What about the nH (phosphodiesterase [4]; Hill coefficient, Phosphodiesterase 2(h)) of the same compound?
Its nH is 0.8.

What about the IC50 (phosphodiesterase [4]; Phosphodiesterase 2 (h)) of the same compound?
The IC50 was 110 nM.

And the nH (phosphodiesterase [5])?
The nH was 0.9.

What about the “inhibition of the irritant-induced ear edema” value ([6]; 0.5% solution topical) of the same compound?
Its value is 12%.

And the “Change in Ear Weight (mg) Average” value ([6]; 0.5%)?
Its value is 44.1 mg.

And the “inhibition of the irritant-induced ear edema” value ([6]; 5% solution topical)?
Its value is 46%.

What about the “Change in Ear Weight (mg) Average” value ([6]; 5%) of the same compound?
Its value is 26.9 mg.

What about the “% Inhibition” value ([6]; 0.5%) of the same compound?
Its value is 12.2%.

And the “% Inhibition” value ([6]; 5%)?
The value was 46.4%.

What about the “Ear Weight (mg) Left (−AA)” value ([6]; 0.5%) of the same compound?
The value was 22 mg (2×) and 20 mg (4×) and 34 mg and 23 mg and 24 mg and 21 mg.

What about the “Ear Weight (mg) Right (+AA)” value ([6]; 0.5%) of the same compound?
The value was 76 mg and 63 mg and 55 mg and 82 mg and 78 mg and 50 mg and 62 mg and 77 mg and 60 mg and 64 mg.

And the “Ear Weight (mg) Left (−AA)” value ([6]; 5%)?
Its value is 23 mg (3×) and 24 mg (2×) and 22 mg (3×) and 20 mg and 21 mg.

What about the “Ear Weight (mg) Right (+AA)” value ([6]; 5%) of the same compound?
Its value is 50 mg and 48 mg and 57 mg and 42 mg and 55 mg and 51 mg and 53 mg and 49 mg and 44 mg (2×).

Which nH (Cytochrome P450 (CYP) [7]) does the source give for `Cc1nc2c([nH]1)c(=O)n(C)c(=O)n2Cc1ccco1` [furafylline] here?
The nH was 0.6.

Which nH (Cytochrome P450 (CYP) [8]) does the source give for `C=C[C@H]1C[N@@]2CC[C@H]1C[C@@H]2[C@@H](O)c1ccnc2ccc(OC)cc12` [quinidine] here?
Its nH is 0.9.

With `Nc1ccc(S(=O)(=O)Nc2ccnn2-c2ccccc2)cc1` [sulfaphenazole] as the compound, how does the nH (Cytochrome P450 (CYP) [9]) read?
Its nH is 1.0.

For infliximab, which “macroscopic injury, colonic MPO and TNF-α levels” value (TNBS colitis) is on record?
The value was “found to reduce the macroscopic injury, colonic MPO and TNF-α levels”.

And the “macroscopic Damage Score” value ([10]; Day 14)?
Its value is “reduced the damage score”.

And the “reduction in colon weight” value ([10]; Day 14, vs CMC group)?
Its value is “significant (P<0.05) reduction in colon weight”.

What about the “reduction in colonic MPO activity” value ([10]; Day 14, vs CMC group) of the same compound?
The value was “significantly attenuated the increase in MPO”.

What about the “reduction in colonic TNF-α levels” value ([10]; Day 14, vs CMC group) of the same compound?
Its value is “significantly attenuated the increase in TNF-α levels”.

What about the “reduction in colonic lesion area (% of the total area measured)” value ([10]; Day 14, vs CMC group) of the same compound?
The value was “significantly attenuated the area of injury”.

And the “attenuation of TNBS-induced fall in body weight (% change of body weight at Day −1)” value ([10]; over 14 days, vs CMC group)?
Its value is “significant on Day 2 and 3”.

— US20090264384A1, “INDOLE, BENZIMIDAZOLE, AND BENZOLACTAM BORONIC ACID COMPOUNDS, ANALOGS THEREOF AND METHODS OF USE THEREOF” (Nuada, Inc., priority 2004, published 2009)
